Article PMC6268642, “Facile Synthesis and Herbicidal Evaluation of 4H-3,1-Benzoxazin-4-ones and 3H-Quinazolin-4-ones with 2-Phenoxymethyl Substituents” (Molecules, 2012)
Where two headings read alike, the source gives them in different places.

What was measured:
[1] = test system: rape Brassica napus; assay: Petri dish culture, growth inhibition of root and stalk of rape; format: in vivo; settings: 5 days; for inhibition at 1 µg/mL / inhibition at 10 µg/mL: Brassica napus, 120 h
Description: (§1) The synthesized compounds were tested for the herbicidal activity on model plants including a monocotyledon (barnyard grass) and a dicotyledon (rape) by the reported Petri dish culture method. The percent inhibitory ratios against the growth of root and stalk of barnyard grass and rape at different dosage concentrations were calculated, and the compounds with appreciable inhibitory potencies are selected and shown in Table 1 and Table 2. Several features of the inhibitory activities can be derived. First, all the compounds have stronger inhibition against the growth of the dicotyledon rape than against the monocotyledon barnyard grass, showing appreciable selectivity.
(§2) The herbicidal activity was examined for the growth inhibition effect of the dicotyledon rape Brassica napus and the monocotyledon barnyard grass Echinochloa crusgalli, using the standard Petri dish test and the pre-emergence treatment procedure. […] Nine mL of the solution was added in a Petri dish of 9 cm diameter and two pieces of filter paper were placed on the dish bottom. Twenty seeds each of rape and barnyard grass were placed on the filter paper. The covered Petri dish was transferred into an artificial climate incubator (MGC-400H, Shantou Keyi Co., Ltd., China), where the conditions were controlled at temperature 23 ± 1 °C, humidity 60 ± 5%, light intensity 10 Klux, and photoperiod 12 h/day. The incubation was continued for 5 days, then the lengths of 10 roots and 10 stems for each type of plant were measured and the mean values were calculated. The percent inhibitory ratios were calculated relative to control plants exposing to distilled water instead of the compound solution.

[2] = test system: rape Brassica napus; assay: Concentration-dependent root elongation inhibition of rape (IC50); format: in vivo
Description: Several representative compounds selected from the 2-phenoxy-4H-3,1-benzoxazin-4-one and 2-phenoxy-3H-quinazolin-4-one groups were tested their concentration dependant activities and the half maximal inhibitory concentrations (IC50 values) are shown in Table 3. Obviously, the 2-phenoxy-4H-3,1-benzoxazin-4-ones 3m and 3o have IC50 values near to that of the commercial herbicidal 2,4-D. More importantly, these molecules consist of 2-phenoxymethyl group with halo substituents both at the 2- and 4- positions of the benzene ring, a similar pattern to the commercial hormone herbicides 2,4-D, clomeprop, and 2,4-DB, as well as the ACCase herbicide diclofop-methyl. […] Moreover, if no halo group exists on the benzene ring, the activity will decrease dramatically. On the other hand, the substructure 4H-3,1-benzoxazin-4-one in this work and the carboxylic group in the commercial phenoxyethanoic and phenoxypropionic acid herbicides play also a crucial role in the contribution to the activities of the compounds, meaning they are active substructures.
The herbicidal activity was examined for the growth inhibition effect of the dicotyledon rape Brassica napus and the monocotyledon barnyard grass Echinochloa crusgalli, using the standard Petri dish test and the pre-emergence treatment procedure. Briefly, the compounds to be tested were dissolved in DMF and emulsified with Tween 80, and the solutions were diluted with water to the concentrations of […], respectively. Nine mL of the solution was added in a Petri dish of 9 cm diameter and two pieces of filter paper were placed on the dish bottom. Twenty seeds each of rape and barnyard grass were placed on the filter paper. The covered Petri dish was transferred into an artificial climate incubator (MGC-400H, Shantou Keyi Co., Ltd., China), where the conditions were controlled at temperature 23 ± 1 °C, humidity 60 ± 5%, light intensity 10 Klux, and photoperiod 12 h/day. The incubation was continued for 5 days, then the lengths of 10 roots and 10 stems for each type of plant were measured and the mean values were calculated. The percent inhibitory ratios were calculated relative to control plants exposing to distilled water instead of the compound solution.

[3] = test system: barnyard grass Echinochloa crusgalli; assay: Petri dish culture, growth inhibition of root and stalk of barnyard grass; format: in vivo; settings: 5 days; for inhibition at 1 µg/mL / inhibition at 10 µg/mL: Echinochloa crus-galli, 120 h
Description: as §1, §2

[4] = 1 mg/L, root growth, read-out: Relative inhibition, root
[5] = 1 mg/L, stalk growth, read-out: Relative inhibition, stalk
[6] = 10 mg/L, root growth, read-out: Relative inhibition, root
[7] = 10 mg/L, stalk growth, read-out: Relative inhibition, stalk
[8] = Brassica napus, rape root elongation, Table 3, read-out: IC50 for the root elongation inhibition of rape

Compound	inhibition at 1 µg/mL [1, 4]	inhibition at 1 µg/mL [1, 5]	inhibition at 10 µg/mL [1, 6]	inhibition at 10 µg/mL [1, 7]	melting point	IC50 [2, 8]	inhibition at 1 µg/mL [3, 4]	inhibition at 1 µg/mL [3, 5]	inhibition at 10 µg/mL [3, 6]	inhibition at 10 µg/mL [3, 7]	further results
O=c1oc(COc2ccc(Cl)cc2Cl)nc2ccc(Cl)cc12 [3o, 6-Chloro-2-((2,4-dichlorophenoxy)methyl)-4H-3,1-benzoxazin-4-one]	93.7%	66.2%	100%	91.4%	157.9 to 160.1 °C	10.7 µM	73.6%	-29.1%	89.4%	14.5%	IC50 ([2]; Brassica napus, rape root growth, read-out: IC50, inhibitory efficacy against the rape root growth): 0.0104 µM
Cn1c(COc2ccc(Cl)cc2)nc2cccc(Cl)c2c1=O [4k, 5-Chloro-2-((4-chlorophenoxy)methyl)-3-methyl-3H-quinazolin-4-one]	48.8%	21.6%	81.9%	52.9%	184.9 to 185.7 °C	201 µM	32.2%	7.5%	50.9%	1.5%	–
O=c1oc(COc2ccc(Cl)cc2Cl)nc2ccccc12 [3m, 2-((2,4-Dichlorophenoxy)methyl)-4H-3,1-benzoxazin-4-one]	96.3%	77.7%	100%	93.8%	118.5 to 119.3 °C	10.3 µM	38.3%	-22.7%	100%	-0.6%	–
CCOc1ccc(Cl)cc1Cl [2,4-dichlorophenyl ethyl ether, reference compound]	–	–	–	–	–	–	–	–	–	–	herbicidal activity (control experiment) ([2]; compound without the 4H-3,1-benzoxazin-4-one substructure, plant not stated): loses nearly all of its herbicidal activity
COc1cc2nc(COc3ccc(Cl)cc3)oc(=O)c2cc1OC [3l, 2-((4-Chlorophenoxy)methyl)-6,7-dimethoxy-4H-3,1-benzoxazin-4-one]	96.3%	74.5%	100%	83.4%	118.5 to 119.3 °C	80.1 µM	65.5%	12.8%	78.7%	22%	–
O=c1oc(COc2ccc(Cl)cc2Cl)nc2cccc(Cl)c12 [3n, 5-Chloro-2-((2,4-dichlorophenoxy)methyl)-4H-benzo[3,1]oxazin-4-one]	80.5%	38.7%	79.2%	45.9%	161.9 to 163.2 °C	43.5 µM	44.4%	12.8%	57.5%	-1.9%	–
3-Amino-7-chloro-2-((2,4-dichlorophenoxy)methyl)-3H-quinazolin-4-one [4i]	–	–	–	–	–	–	–	–	–	–	Relative inhibition, root ([1]; 1 mg/L, root growth): 93.6%; Relative inhibition, stalk ([1]; 1 mg/L, stalk growth): 92.3%; Relative inhibition, root ([1]; 10 mg/L, root growth): 98.2%; Relative inhibition, stalk ([1]; 10 mg/L, stalk growth): 95.7%; IC50 ([2]; rape root elongation, Table 3, read-out: IC50 for the root elongation inhibition of rape): 27.2 µM; Relative inhibition, root ([3]; 1 mg/L, root growth): 24.3%; Relative inhibition, stalk ([3]; 1 mg/L, stalk growth): −7.2%; Relative inhibition, root ([3]; 10 mg/L, root growth): 68.5%; Relative inhibition, stalk ([3]; 10 mg/L, stalk growth): 38.1%
O=c1oc(COc2ccc(Cl)cc2)nc2cccc(Cl)c12 [3h, 5-Chloro-2-((4-chlorophenoxy)methyl)-4H-3,1-benzoxazin-4-one]	96.3%	62%	100%	91.7%	144.3 to 145.7 °C	138 µM	59.8%	14.7%	88.7%	41.9%	–
COc1cc2nc(COc3ccc(Cl)cc3Cl)oc(=O)c2cc1OC [3q, 2-((2,4-Dichlorophenoxy)methyl)-6,7-dimethoxy-4H-3,1-benzoxazin-4-one]	58.3%	14.8%	100%	85.2%	161.9 to 163.2 °C	142 µM	35.5%	-7.4%	51.9%	-52.8%	–
COc1cc2nc(COc3ccc(Cl)cc3Cl)n(N)c(=O)c2cc1OC [4j, 3-Amino-2-((2,4-dichlorophenoxy)methyl)-6,7-dimethoxy-3H-quinazolin-4-one]	58.4%	40.2%	84.9%	67.2%	272.3 to 273.1 °C	168 µM	7.7%	8.3%	60%	5%	–
O=c1oc(COc2ccc(Cl)cc2Cl)nc2cc(Cl)ccc12 [3p, 7-Chloro-2-((2,4-dichlorophenoxy)methyl)-4H-3,1-benzoxazin-4-one]	98%	82.3%	100%	91.4%	139.6 to 142.5 °C	11.1 µM	64.3%	5.9%	100%	-14.4%	–
O=c1oc(COc2ccc(Cl)cc2)nc2ccccc12 [3g, 2-((4-Chlorophenoxy)methyl)-4H-3,1-benzoxazin-4-one]	98%	56.8%	100%	68%	147.5 to 149.2 °C	30.4 µM	53.7%	-25.6%	79.5%	-1.8%	–
